Laboratory results reported in patent publication US20090291915A1, “Silicon Compounds and Their Use” (priority 2001, published 2009).

Structure (SMILES): COc1nc(NCCCN2CCOCC2)nc(OC)c1NC(=O)c1ccc(Oc2cncc([Si](C)(C)C)c2)o1
- melting point: 80 to 82 °C
